In ChEMBL document CHEMBL5126517, “Structure-Activity Relationship in the Leucettine Family of Kinase Inhibitors” (J Med Chem, 2022):

Assays:
[1] = target: Dual specificity protein kinase CLK3 (Mus musculus, UniProt O35492); experiment: Inhibition of GST-fused mouse recombinant CLK3 expressed in Escherichia coli using GRSRSRSRSRSR peptide as substrate incubated for 30 mins in presence of ATP by scintillation counting method
[2] = target: Dual specificity protein kinase CLK4 (Mus musculus, UniProt O35493); experiment: Inhibition of GST-fused mouse recombinant CLK4 expressed in Escherichia coli using GRSRSRSRSRSR peptide as substrate incubated for 30 mins in presence of ATP by scintillation counting method
[3] = target: Dual specificity tyrosine-phosphorylation-regulated kinase 1B (Homo sapiens, UniProt Q9Y463)
Cannabinoid receptor 1 = Cannabinoid receptor 1 (Homo sapiens, UniProt P21554); experiment: Antagonist activity at CP-55940-activated CB1 receptor (unknown origin) at 10 uM by beta-arrestin assay relative to control; format: functional; set-up: scale not given: the % may be the effect or the level left
[4] = target: T1, Dual specificity tyrosine-phosphorylation-regulated kinase 3 (Homo sapiens, UniProt O43781); experiment: Inhibition of GST-fused human recombinant DYRK3 expressed in Escherichia coli using GRSRSRSRSRSR peptide as substrate incubated for 30 mins in presence of ATP by scintillation counting method
T1 sequence (O43781 whole entry): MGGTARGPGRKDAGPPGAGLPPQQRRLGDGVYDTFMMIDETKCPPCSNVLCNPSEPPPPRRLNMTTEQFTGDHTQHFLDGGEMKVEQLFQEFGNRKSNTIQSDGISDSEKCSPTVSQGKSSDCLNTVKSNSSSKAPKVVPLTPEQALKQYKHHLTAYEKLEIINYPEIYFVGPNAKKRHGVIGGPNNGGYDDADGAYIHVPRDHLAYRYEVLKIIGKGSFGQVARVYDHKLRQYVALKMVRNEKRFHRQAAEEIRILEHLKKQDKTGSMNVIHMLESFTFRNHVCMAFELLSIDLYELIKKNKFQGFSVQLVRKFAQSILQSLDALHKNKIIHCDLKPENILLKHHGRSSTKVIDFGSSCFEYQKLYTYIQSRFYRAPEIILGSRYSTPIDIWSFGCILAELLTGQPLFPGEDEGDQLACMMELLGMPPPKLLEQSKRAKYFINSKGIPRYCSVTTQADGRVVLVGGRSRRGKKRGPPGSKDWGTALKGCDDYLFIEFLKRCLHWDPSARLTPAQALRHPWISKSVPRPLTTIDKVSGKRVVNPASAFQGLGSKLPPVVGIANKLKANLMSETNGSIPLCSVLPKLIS

[5] = target: Dual specificity protein kinase CLK2 (Mus musculus, UniProt O35491); experiment: Inhibition of mouse recombinant GST-fused CLK2 expressed in Escherichia coli using GRSRSRSRSRSR peptide as substrate incubated for 30 mins in presence of ATP by scintillation counting method
Casein kinase 2 = Casein kinase 2 (Homo sapiens, UniProt P67870+P68400+P19784+Q8NEV1); experiment: Inhibition of human recombinant CK2 using RRRDDDSDDD peptide as substrate incubated for 30 mins in presence of ATP by scintillation counting method; format: protein assay
HT-22 [6] = experiment: Modulation of CLK1 pre-mRNA splicing in mouse HT-22 cells assessed as inclusion of CLK1 exon 4 by measuring change in threshold cycle at 10 uM measured after 4 hrs by real time PCR analysis; format: cell-based; details: filed as modulator
[7] = target: Dual specificity tyrosine-phosphorylation-regulated kinase 1A (Homo sapiens, UniProt Q13627); experiment: Inhibition of GST-fused human recombinant DYRK1A expressed in Escherichia coli using GRSRSRSRSRSR peptide as substrate incubated for 30 mins in presence of ATP by scintillation counting method
U2OS = experiment: Induction of PI3K/mTor-dependent autophagy in human U2OS cells assessed as number of LC3 foci per cell at 10 uM measured after 4 hrs; format: cell-based; details: filed as activator
[8] = target: T2, Dual specificity tyrosine-phosphorylation-regulated kinase 2 (Homo sapiens, UniProt Q92630); experiment: Inhibition of GST-fused human recombinant DYRK2 expressed in Escherichia coli using GRSRSRSRSRSR peptide as substrate incubated for 30 mins in presence of ATP by scintillation counting method
T2 sequence (Q92630 whole entry): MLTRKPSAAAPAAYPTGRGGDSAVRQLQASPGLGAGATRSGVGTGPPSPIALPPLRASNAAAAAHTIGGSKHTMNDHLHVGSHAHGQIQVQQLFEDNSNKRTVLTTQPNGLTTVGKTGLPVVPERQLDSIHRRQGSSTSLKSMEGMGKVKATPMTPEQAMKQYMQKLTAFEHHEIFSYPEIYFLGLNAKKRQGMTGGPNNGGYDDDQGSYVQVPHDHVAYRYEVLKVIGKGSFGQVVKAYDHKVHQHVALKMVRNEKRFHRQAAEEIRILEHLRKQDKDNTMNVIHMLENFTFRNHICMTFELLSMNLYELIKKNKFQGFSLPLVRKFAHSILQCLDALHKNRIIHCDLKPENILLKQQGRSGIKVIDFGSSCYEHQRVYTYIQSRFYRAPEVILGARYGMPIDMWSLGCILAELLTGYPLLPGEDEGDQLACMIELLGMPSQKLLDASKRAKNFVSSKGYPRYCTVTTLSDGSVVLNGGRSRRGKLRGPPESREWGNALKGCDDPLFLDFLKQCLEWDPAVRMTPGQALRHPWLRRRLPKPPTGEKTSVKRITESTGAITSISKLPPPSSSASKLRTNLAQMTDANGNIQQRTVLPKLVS

[9] = Neurotoxicity against mouse HT-22 cells assessed as cell survival at 20 uM treated for 24 hrs by MTS assay; format: toxicity, cell-based; details: ht-22, 24 h
[10] = target: Dual specificity protein kinase CLK1 (Mus musculus, UniProt P22518); experiment: Inhibition of GST-fused mouse recombinant CLK1 expressed in Escherichia coli using GRSRSRSRSRSR peptide as substrate incubated for 30 mins in presence of ATP by scintillation counting method
[11] = target: Glycogen synthase kinase-3 (Sus scrofa, UniProt B2LUN4+I6LNT8); experiment: Inhibition of porcine brain GSK-3alpha/beta using YRRAAVPPSPSLSRHSSPHQpSEDEEE as substrate incubated for 30 mins in presence of ATP by scintillation counting method; format: tissue-based
HT-22 [12] = experiment: Neuroprotective activity against glutamate-induced cell death in mouse HT-22 cells treated for 24 hrs by MTS assay; format: functional, cell-based; details: HT-22, 24 h
[13] = target: Serine/threonine-protein kinase pim-1 (Homo sapiens, UniProt P11309); experiment: Inhibition of human recombinant Pim1 expressed in Escherichia coli using histone H1 as substrate incubated for 30 mins in presence of ATP by scintillation counting method
Chain of Serine/threonine-protein kinase pim-1 (P11309 whole entry): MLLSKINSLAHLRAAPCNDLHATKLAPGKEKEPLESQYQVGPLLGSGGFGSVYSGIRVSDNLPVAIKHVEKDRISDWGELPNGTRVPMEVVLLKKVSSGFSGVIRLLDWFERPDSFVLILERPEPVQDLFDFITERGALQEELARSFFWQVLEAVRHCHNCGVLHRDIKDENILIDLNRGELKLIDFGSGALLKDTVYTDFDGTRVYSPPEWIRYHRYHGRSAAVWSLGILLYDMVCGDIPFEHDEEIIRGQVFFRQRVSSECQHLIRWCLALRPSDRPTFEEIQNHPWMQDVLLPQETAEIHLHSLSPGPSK

Chain of Cannabinoid receptor 1 (P21554 whole entry, the tested form may be a part): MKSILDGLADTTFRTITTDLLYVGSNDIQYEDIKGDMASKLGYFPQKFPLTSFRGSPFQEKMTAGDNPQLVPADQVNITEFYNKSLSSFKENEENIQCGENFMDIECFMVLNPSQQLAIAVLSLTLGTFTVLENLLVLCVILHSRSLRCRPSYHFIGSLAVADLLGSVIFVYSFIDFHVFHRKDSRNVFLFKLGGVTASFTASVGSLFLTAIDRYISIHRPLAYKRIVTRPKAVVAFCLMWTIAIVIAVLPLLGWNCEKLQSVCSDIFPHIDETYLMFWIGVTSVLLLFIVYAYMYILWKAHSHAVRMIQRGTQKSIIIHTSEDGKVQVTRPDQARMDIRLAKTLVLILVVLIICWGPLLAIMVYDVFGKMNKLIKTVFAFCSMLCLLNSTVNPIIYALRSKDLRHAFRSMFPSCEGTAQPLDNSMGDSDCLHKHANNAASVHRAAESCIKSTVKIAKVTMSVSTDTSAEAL
Chain of Dual specificity protein kinase CLK4 (O35493 whole entry, the tested form may be a part): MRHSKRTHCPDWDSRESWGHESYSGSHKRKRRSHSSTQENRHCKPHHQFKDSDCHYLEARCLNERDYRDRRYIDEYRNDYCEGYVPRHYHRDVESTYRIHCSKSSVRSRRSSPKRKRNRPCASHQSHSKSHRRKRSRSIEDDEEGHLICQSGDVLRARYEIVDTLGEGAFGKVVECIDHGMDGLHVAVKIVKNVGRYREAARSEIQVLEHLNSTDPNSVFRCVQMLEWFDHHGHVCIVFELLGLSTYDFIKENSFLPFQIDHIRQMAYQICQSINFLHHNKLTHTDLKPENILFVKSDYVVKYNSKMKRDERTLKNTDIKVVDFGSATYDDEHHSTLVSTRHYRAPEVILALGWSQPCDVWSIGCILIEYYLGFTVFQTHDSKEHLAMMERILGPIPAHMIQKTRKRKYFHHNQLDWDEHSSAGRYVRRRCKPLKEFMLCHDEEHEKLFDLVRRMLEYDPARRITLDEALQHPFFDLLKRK
Chain of Dual specificity protein kinase CLK2 (O35491 whole entry, the tested form may be a part): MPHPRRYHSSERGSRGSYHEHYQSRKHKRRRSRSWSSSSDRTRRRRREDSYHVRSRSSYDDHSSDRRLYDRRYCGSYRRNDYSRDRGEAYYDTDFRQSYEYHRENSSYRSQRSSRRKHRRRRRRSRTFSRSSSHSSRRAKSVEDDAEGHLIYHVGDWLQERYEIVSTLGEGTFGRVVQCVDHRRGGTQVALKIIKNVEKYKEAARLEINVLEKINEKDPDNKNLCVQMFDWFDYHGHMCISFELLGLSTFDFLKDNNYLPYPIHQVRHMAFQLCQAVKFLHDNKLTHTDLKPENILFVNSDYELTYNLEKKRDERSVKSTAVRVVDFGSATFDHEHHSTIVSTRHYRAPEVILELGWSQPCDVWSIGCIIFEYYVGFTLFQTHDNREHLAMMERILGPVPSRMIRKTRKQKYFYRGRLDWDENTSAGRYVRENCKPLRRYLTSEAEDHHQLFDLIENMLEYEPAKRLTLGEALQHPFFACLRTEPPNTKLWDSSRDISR
Chain of Dual specificity protein kinase CLK3 (O35492 whole entry, the tested form may be a part): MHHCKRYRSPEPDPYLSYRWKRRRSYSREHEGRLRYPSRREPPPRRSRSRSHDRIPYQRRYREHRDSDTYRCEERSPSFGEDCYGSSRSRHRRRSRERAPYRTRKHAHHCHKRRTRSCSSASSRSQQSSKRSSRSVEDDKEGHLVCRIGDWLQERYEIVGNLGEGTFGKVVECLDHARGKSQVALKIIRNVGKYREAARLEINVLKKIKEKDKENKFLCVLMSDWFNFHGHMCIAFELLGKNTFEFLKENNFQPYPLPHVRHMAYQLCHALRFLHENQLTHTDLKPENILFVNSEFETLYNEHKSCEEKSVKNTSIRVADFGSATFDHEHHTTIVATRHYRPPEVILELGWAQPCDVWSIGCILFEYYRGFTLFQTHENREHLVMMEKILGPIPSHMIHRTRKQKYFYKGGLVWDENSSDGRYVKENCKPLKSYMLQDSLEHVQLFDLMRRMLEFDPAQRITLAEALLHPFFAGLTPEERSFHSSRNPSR
Chain of Dual specificity protein kinase CLK1 (P22518 whole entry, the tested form may be a part): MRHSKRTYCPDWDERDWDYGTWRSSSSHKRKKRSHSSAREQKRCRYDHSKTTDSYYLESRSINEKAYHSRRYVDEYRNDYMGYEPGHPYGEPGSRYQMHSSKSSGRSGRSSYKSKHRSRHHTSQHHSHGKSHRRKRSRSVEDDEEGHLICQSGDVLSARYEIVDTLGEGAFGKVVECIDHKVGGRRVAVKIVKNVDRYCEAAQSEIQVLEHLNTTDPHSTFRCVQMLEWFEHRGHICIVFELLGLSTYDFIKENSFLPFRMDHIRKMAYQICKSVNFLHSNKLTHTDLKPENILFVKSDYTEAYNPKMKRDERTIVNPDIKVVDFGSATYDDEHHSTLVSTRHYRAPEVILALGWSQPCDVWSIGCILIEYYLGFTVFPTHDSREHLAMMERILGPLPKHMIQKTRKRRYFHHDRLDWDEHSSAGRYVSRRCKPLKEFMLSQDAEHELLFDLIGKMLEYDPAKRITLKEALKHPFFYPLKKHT
Chain of Dual specificity tyrosine-phosphorylation-regulated kinase 1B (Q9Y463 whole entry): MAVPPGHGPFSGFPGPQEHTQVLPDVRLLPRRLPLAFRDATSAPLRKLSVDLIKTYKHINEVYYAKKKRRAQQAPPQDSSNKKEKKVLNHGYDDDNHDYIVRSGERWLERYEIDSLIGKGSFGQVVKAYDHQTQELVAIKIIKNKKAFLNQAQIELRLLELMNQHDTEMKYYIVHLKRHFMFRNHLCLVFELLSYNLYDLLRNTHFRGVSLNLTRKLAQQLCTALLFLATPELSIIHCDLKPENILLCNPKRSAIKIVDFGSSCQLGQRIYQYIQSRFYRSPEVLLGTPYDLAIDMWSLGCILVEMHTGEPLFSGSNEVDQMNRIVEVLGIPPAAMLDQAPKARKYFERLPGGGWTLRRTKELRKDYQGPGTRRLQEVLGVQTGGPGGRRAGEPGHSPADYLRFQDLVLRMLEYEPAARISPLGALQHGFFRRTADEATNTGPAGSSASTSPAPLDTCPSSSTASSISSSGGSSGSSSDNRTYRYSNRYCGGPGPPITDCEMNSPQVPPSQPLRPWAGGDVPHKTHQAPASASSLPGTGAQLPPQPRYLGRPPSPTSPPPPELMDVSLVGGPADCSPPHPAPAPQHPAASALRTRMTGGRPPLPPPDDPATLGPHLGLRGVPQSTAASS

## COc1ccc(NC2=N/C(=C\c3ccc4c(c3)OCO4)C(=O)N2)cc1
[1]
  IC50: > 10000 nM
[2]
  IC50: 130 nM
[3]
  IC50: 270 nM
Cannabinoid receptor 1; filed as antagonist
  Activity: 50.5%
[4]
  IC50: 6000 nM
[5]
  IC50: 7500 nM
Casein kinase 2
  IC50: > 10000 nM
HT-22 [6]
  deltaCT: 0.5
[7]
  IC50: 110 nM
U2OS
  Activity: 5.9
[8]
  IC50: 130 nM
[9]
  Activity: Non-Toxic
[10]
  IC50: 140 nM
[11]
  IC50: > 10000 nM

## CCSC1NC(=O)/C(=C/c2ccc3c(c2)OCO3)N1C (stereo not drawn)
Cannabinoid receptor 1
  Activity: -10.7%
HT-22 [6]
  deltaCT: 0.23
U2OS
  Activity: 6.5
[9]
  Activity: Non-Toxic

## O=C1OC(Nc2ccccc2)=N/C1=C\c1ccc2c(c1)OCO2
Cannabinoid receptor 1
  Activity: -37.5%
HT-22 [6]
  deltaCT: -0.18
U2OS
  Activity: 6.2
[9]
  Activity: Non-Toxic

## Cc1ccc(C)c(NC2=N/C(=C\c3ccc4c(c3)OCO4)C(=O)N2)c1
[1]
  IC50: 3500 nM
[2]
  IC50: 23 nM
[3]
  IC50: 92 nM
Cannabinoid receptor 1
  Activity: 10.8%
[4]
  IC50: 800 nM
[5]
  IC50: 180 nM
HT-22 [12]
  EC50: 7000 nM
Casein kinase 2
  IC50: 1600 nM
[13]
  IC50: 7700 nM
[7]
  IC50: 24 nM
U2OS
  Activity: 26
[8]
  IC50: 22 nM
[9]
  Activity: Non-Toxic
[10]
  IC50: 50 nM
[11]
  IC50: 10000 nM

## O=C1NC(Nc2ccccc2)=N/C1=C\c1ccc2c(c1)OCCO2
[1]
  IC50: 2400 nM
[2]
  IC50: 140 nM
[3]
  IC50: 250 nM
Cannabinoid receptor 1; filed as antagonist
  Activity: 96.3%
[4]
  IC50: 420 nM
[5]
  IC50: 880 nM
HT-22 [12]
  EC50: 10000 nM
Casein kinase 2
  IC50: 970 nM
[13]
  IC50: 1000 nM
[7]
  IC50: 76 nM
U2OS
  Activity: 6.6
[8]
  IC50: 92 nM
[9]
  Activity: Non-Toxic
[10]
  IC50: 130 nM
[11]
  IC50: 2000 nM

## Cn1cc(Cc2ccc3c(c2)OCO3)nc1N
[1]
  IC50: > 10000 nM
[2]
  IC50: 3000 nM
Cannabinoid receptor 1
  Activity: 8.9%
[4]
  IC50: > 10000 nM
[5]
  IC50: > 10000 nM
HT-22 [6]
  deltaCT: 0.38
[7]
  IC50: > 10000 nM
U2OS
  Activity: 5.3
[8]
  IC50: > 10000 nM
[9]
  Activity: Non-Toxic
[10]
  IC50: 3200 nM

## O=C1NC(Nc2cccc(F)c2)=N/C1=C\c1ccc2c(c1)OCO2
[1]
  IC50: 560 nM
[2]
  IC50: 30 nM
[3]
  IC50: 35 nM
Cannabinoid receptor 1; filed as antagonist
  Activity: 83.4%
[4]
  IC50: 350 nM
[5]
  IC50: 130 nM
HT-22 [12]
  EC50: 5000 nM
Casein kinase 2
  IC50: 800 nM
[13]
  IC50: 1200 nM
[7]
  IC50: 19 nM
U2OS
  Activity: 7.5
[8]
  IC50: 23 nM
[9]
  Activity: Non-Toxic
[10]
  IC50: 52 nM
[11]
  IC50: 560 nM

## O=C1NC(Nc2ccc(N3CCNCC3)cc2)=N/C1=C\c1ccc2c(c1)OC=CO2
[1]
  IC50: > 10000 nM
[2]
  IC50: 640 nM
[3]
  IC50: 1400 nM
Cannabinoid receptor 1
  Activity: -20%
[4]
  IC50: 1100 nM
[5]
  IC50: 2300 nM
HT-22 [12]
  EC50: 1250 nM
Casein kinase 2
  IC50: 3000 nM
[13]
  IC50: 5400 nM
[7]
  IC50: 530 nM
U2OS
  Activity: 7.3
[8]
  IC50: 350 nM
[9]
  Activity: Non-Toxic
[10]
  IC50: 1100 nM
[11]
  IC50: 4600 nM

## O=C1NC(Nc2ccc(N3CCNCC3)cc2)=N/C1=C\c1ccc2c(c1)OCO2
[1]
  IC50: 9000 nM
[2]
  IC50: 520 nM
[3]
  IC50: 950 nM
Cannabinoid receptor 1
  Activity: -47.5%
[4]
  IC50: 1200 nM
[5]
  IC50: 1800 nM
HT-22 [12]
  EC50: 910 nM
Casein kinase 2
  IC50: 2300 nM
[13]
  IC50: 6100 nM
[7]
  IC50: 350 nM
U2OS
  Activity: 7.3
[8]
  IC50: 410 nM
[9]
  Activity: Non-Toxic
[10]
  IC50: 420 nM
[11]
  IC50: 2400 nM

## O=C1NC(Nc2ccc(F)cc2)=N/C1=C\c1ccc2c(c1)OCO2
[1]
  IC50: > 10000 nM
[2]
  IC50: 50 nM
[3]
  IC50: 100 nM
Cannabinoid receptor 1; filed as antagonist
  Activity: 76.4%
[4]
  IC50: 930 nM
[5]
  IC50: 260 nM
HT-22 [12]
  EC50: 3600 nM
Casein kinase 2
  IC50: 8800 nM
[13]
  IC50: 9300 nM
[7]
  IC50: 28 nM
U2OS
  Activity: 4.9
[8]
  IC50: 35 nM
[9]
  Activity: Non-Toxic
[10]
  IC50: 62 nM
[11]
  IC50: 8800 nM

## Cc1ccc(NC2=N/C(=C\c3ccc4c(c3)OCO4)C(=O)N2)c(C)c1
[1]
  IC50: > 10000 nM
[2]
  IC50: 140 nM
[3]
  IC50: 160 nM
Cannabinoid receptor 1; filed as antagonist
  Activity: 65.6%
[4]
  IC50: 950 nM
[5]
  IC50: 1100 nM
HT-22 [12]
  EC50: 8000 nM
Casein kinase 2
  IC50: 2400 nM
[13]
  IC50: 2500 nM
[7]
  IC50: 72 nM
U2OS
  Activity: 5.6
[8]
  IC50: 75 nM
[9]
  Activity: Non-Toxic
[10]
  IC50: 240 nM
[11]
  IC50: 1400 nM
